Holding throughout (format): in vivo, rat
Test [1] concerns cold model of immunocompromised rats. Kind of test: Cold model of immunocompromised rats induced by cyclophosphamide: body temperature. To be noted: SD rats cold model, Sample-1 150, Sample-2 75, Sample-3/-4/-5 150, Sample-6 30 mg/kg. An excerpt:
(§1) […] were divided into 20 cages, 5 SD rats in each cage, 2 cages in each group, 1 cage for male and female respectively. After 7 days of adaptive growth, 70 rats were used for drug administration evaluation and the construction of rat upper respiratory tract infection model, and the remaining 10 rats were used for normal control. During the whole experiment, the animals were looked after and treated in strict accordance with the animal ethics law.
(§2) After the adaptive growth, the drug was given by gavage once a day for each SD rat. The Placebo group and the normal control group were given the same volume of drug solution (i.e. normal saline) every day for 4 weeks, i.e. 28 days.
(§3) 1) On the 14th day after gavage administration, rats in the model group were intraperitoneally injected with cyclophosphamide for 3 consecutive days and strengthened once on the 20th day to prepare the immunosuppressive model.
(§4) 2) On the 21st day, after the rats were placed in a low temperature environment overnight (4° C.), the cold symptoms such as burnout, decreased food intake and increased nasal secretion were found, which was regarded as successful modeling.
(§5) 3) During the period of normal administration, the administration was ended on the 28th day, and the rats were killed.
(§6) The body weight of rats was measured once a week. During the administration, the general conditions, behavioral characteristics and death status of rats in each group, such as appetite, hair color and body posture, were observed. Nasal secretion and body temperature were observed ever day.

The subject of test [2] is IL-1β, IFN-γ, IgG, IgM, sIgA. Kind of test: Cold model rats: cytokines in serum and saliva by ELISA. Conditions: SD rats cold model, gavage 28 days, Sample-1 150, Sample-2 75, Sample-3/-4/-5 150, Sample-6 30 mg/kg. The protocol:
1) On the second day after the last administration, the rats were anesthetized by intraperitoneal injection of 10% chloral hydrate with the anesthetic dosage of 0.35 ml/100 g;
2) The abdominal cavity was opened, and a 5 ml sterile syringe was inserted into the abdominal vein of the rats, and the venous blood was drawn:
3) The drawn venous blood was put into a heparin tube, mixed well, and left in a chromatography freezer at 4° C. overnight.
4) After centrifugation at 14000 rpm at 4° C. for 15 minutes, the supernatant was taken and stored at −80° C. for use.
2) SD rats were fixed in the supine and low head position, sterile cotton swabs were inserted into the upper respiratory tract of rats, dipped in rat saliva, and immediately placed in precooled normal saline and stored at −80° C. for use.
The final serum was used for IL-1β, IL-6, IL-12, IFN-γ, IgG, IgM, and saliva was used for the determination of sIgA. The determination steps were as follows:
1) taking out the ELISA kit from the refrigerator and balancing it at room temperature for 20 min;
3) after sealing the film with a film sealing plate, placing it in a 37° C. incubator for incubation for 30 min;
4) discarding the liquid in the wells, gently drying it, and adding 50 μL biotin labeled antibody working solution to each well, and incubating in a 37° C. incubator for 30 min;
5) carefully removing the sealing film, pouring out the liquid in the wells, gently spin drying it, adding washing liquid into each well, standing at room temperature for 30 seconds and then pouring it out, repeating this operation for 5 times and gently patting it dry;
6) adding 50 μL horseradish peroxidase labeled avidin working solution to each well, and incubating in a 37° C. incubator for 30 min;
7) pouring out the liquid in the wells, gently spin drying it, adding washing liquid into each well, standing at room temperature for 30 seconds and then pouring it out, repeating this operation for 5 times and gently patting it dry; and
8) adding […] color developing solution to each well in turn, and developing color in a 37° C. incubator without light for 15 min;
9) adding 50 μL termination solution to each well to terminate the reaction, then zeroing the blank wells and measure the absorbance (OD value) of each well at 450 nm wavelength, where the determination shall be carried out within 15 min after the termination solution is added.
A general note: An ELISA detects its analyte on a solid surface through an enzyme-linked reagent.

A short description of test [3]: Cold model of immunocompromised rats induced by cyclophosphamide: body weight. Conditions: SD rats, Sample-1 150, Sample-2 75, Sample-3/-4/-5 150, Sample-6 30 mg/kg.
Excerpt: as §1, §2, §3, §4, §5, §6

SMILES strings stand for the structures.

As to `O=C1O[C@H]([C@@H](O)CO)C(O)=C1O` [Sample-6, VC], the “temperature Day 15” value in test [1] (Day 15) amounted to 36.84 ± 0.22. The “temperature Day 16” value in test [1] (Day 16) turned out to be 36.78 ± 0.48. For the same compound, the “temperature Day 17” value in test [1] (Day 17) is on record as 36.9 ± 0.33. Further, the “temperature Day 18” value in test [1] (Day 18) came to 36.6 ± 0.19. In test [1] (Day 19), the “temperature Day 19” value amounted to 36.63 ± 0.28. For the same compound, in test [1] (Day 20), the “temperature Day 20” value is recorded as 36.69 ± 0.22. Further, in test [1] (Day 21), the “temperature Day 21” value came out at 36.41 ± 0.3. The “temperature Day 22” value in test [1] (Day 22) came to 37.89 ± 0.53. In addition, the “temperature Day 23” value in test [1] (Day 23) turned out to be 38.23 ± 0.64. In addition, the “temperature Day 24” value in test [1] (Day 24) was 38.11 ± 0.56. Moreover, in test [1] (Day 25), the “temperature Day 25” value is listed as 37.87 ± 0.4. The “temperature Day 26” value in test [1] (Day 26) came to 37.41 ± 0.4. The “temperature Day 27” value in test [1] (Day 27) was 37.32 ± 0.28. For the same compound, the “temperature Day 28” value in test [1] (Day 28) turned out to be 37.62 ± 0.31. In test [2] (final serum), the “serum IFN-γ content” value stood at 170.49 ± 21.44 pg/mL, the “serum IL-β content” value came to 100.12 ± 27.51 pg/mL, the “serum IgG content” value stood at 606.77 ± 259.06 µg/mL and the “serum IgM content” value worked out at 177.1 ± 35.59 µg/mL. The “saliva sIgA content” value in test [2] (upper respiratory tract saliva) is 13.9 ± 4.08 µg/mL. Moreover, in test [3] (week 1), the “weight week 1” value was found to be 200.37 ± 8.23 g. In addition, in test [3] (week 2), the “weight week 2” value came out at 217.99 ± 12.26 g. Besides, the “weight week 3” value in test [3] (week 3) amounted to 193.64 ± 12.51 g. Besides, in test [3] (week 4), the “weight week 4” value is recorded as 173.58 ± 7.48 g. Moreover, the “weight week 0” value in test [3] (gavage once a day 28 days, week 0) turned out to be 184.61 ± 7.84 g.
